Reference: the supplement of paper PMC10307832

Tests used:
Assay in all cases: relative viability (nuclei count vs DMSO), 5 days (fraction); higher = more cells survive
[1] = compound: c1ccc2c(CCNc3ccc(Nc4ccncc4)cc3)c[nH]c2c1 [Serdemetan] + Cc1cc(Nc2cc(N3CCN(C)CC3)nc(Sc3ccc(NC(=O)C4CC4)cc3)n2)n[nH]1 [Tozasertib] (partner 0.1 µM)
Method in brief: (§1)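 Each reported value is a median over duplicate plates. It expresses relative viability: treated-well nuclei count divided by vehicle-well nuclei count. Lung cancer cell lines in 1536-well plates were dosed by pin tool a day after seeding, alone with one drug or with a fixed anchor-drug dose plus five library-drug doses (not always all listed) in √10 steps, and nuclei were counted after 5 days.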

[2] = compound: c1ccc2c(CCNc3ccc(Nc4ccncc4)cc3)c[nH]c2c1 [Serdemetan] + CC1(C)CCC(c2ccc(Cl)cc2)=C(CN2CCN(c3ccc(C(=O)NS(=O)(=O)c4ccc(N[C@H](CCN5CCOCC5)CSc5ccccc5)c(S(=O)(=O)C(F)(F)F)c4)cc3)CC2)C1 [Navitoclax] (partner 0.5 µM)
Method in brief: as §1

[3] = compound: C1CC(C2=C(C1)C3=C(N2)C=CC(=C3)Cl)C(=O)N [Selisistat] + CC(=O)Nc1cccc(-n2c(=O)n(C3CC3)c(=O)c3c(Nc4ccc(I)cc4F)n(C)c(=O)c(C)c32)c1 [Trametinib] (partner 0.02 µM)
Method in brief: as §1

[4] = compound: C1CC(C2=C(C1)C3=C(N2)C=CC(=C3)Cl)C(=O)N [Selisistat] + CC(C)C[C@H](NC(=O)[C@H](Cc1ccccc1)NC(=O)c1cnccn1)B(O)O [Bortezomib] (partner 0.002 µM)
Method in brief: as §1

In the case of UMC-11, the relative viability ([1]; first compound 0.04 µM) is reported as 0.224, the relative viability ([1]; first compound 0.1265 µM) is reported as 0.199 and the relative viability ([1]; first compound 0.4 µM) is reported as 0.208. It also gave a relative viability ([1]; first compound 4 µM) of 0.233, a relative viability ([2]; first compound 0.04 µM) of 0.327 and a relative viability ([2]; first compound 0.1265 µM) of 0.387. The relative viability ([2]; first compound 0.4 µM) was 0.314, the relative viability ([2]; first compound 1.265 µM) was 0.266 and the relative viability ([2]; first compound 4 µM) was 0.313. The relative viability ([3]; first compound 0.4 µM) was 0.575, the relative viability ([3]; first compound 1.265 µM) was 0.653 and the relative viability ([3]; first compound 4 µM) was 0.596. It also gave a relative viability ([3]; first compound 12.65 µM) of 0.742, a relative viability ([3]; first compound 40 µM) of 0.717 and a relative viability ([4]; first compound 0.4 µM) of 0.494. The relative viability ([4]; first compound 1.265 µM) was 0.71, the relative viability ([4]; first compound 4 µM) was 0.738 and the relative viability ([4]; first compound 12.65 µM) was 0.671. It also gave a relative viability ([4]; first compound 40 µM) of 0.626.
